# According to patent US20230277490A1, “GLUTAMINE AS AN ANTICANCER THERAPY IN SOLID TUMORS” (CEDARS-SINAI MEDICAL CENTER, priority 2020, published 2023):
# How the values were obtained:
# PDAC mouse models = settings: in vivo; cited from earlier work
# Mia PaCa-2 cells [1] = assay: Antitumor efficacy of L-Gln supplementation and CB-839 in vitro (FIG. 7); format: cell-based; settings: for antitumor efficacy: single agent, Mia PaCa-2 cells in vitro
# PDAC cells [2] = assay: Glutamine supplementation with increasing concentrations of gemcitabine in PDAC cells; format: cell-based
# Text: The ability of L-Gln supplementation to […] intracellular nucleotide stores makes it an attractive agent to pair with gemcitabine, a standard chemotherapy used in the treatment of PDAC patients whose activity is also based on its ability to inhibit DNA synthesis.
# We show herein that glutamine deprivation through glutaminase inhibition increases cancer cell survival and potentiates resistance to gemcitabine in PDAC cells.
# pancreatic cancer cells [3] = assay: Metabolomic mass spectrometric analysis of metabolite levels; format: cell-based, human
# Protocol: We tested how elevated glutamine affects gemcitabine efficacy. […] We next tested the metabolic impact of super-physiologic glutamine concentration (40 mM) on the gemcitabine response (0.5 μM) of pancreatic cancer cells through standard metabolomic mass spectrometric analysis. The heat map in FIG. 3 illustrates the differential metabolite accumulation with glutamine and gemcitabine treatment, as single agent and in combination. There were a number of metabolic changes that were only observed with the combination treatment. […] Importantly, high glutamine administration would reduce the concentration of gemcitabine required to cause significant cancer cell death.
# Mia PaCa-2 cells [4] = assay: Intracellular sodium by sodium green fluorescence intensity; format: cell-based; settings: MIA PaCa-2 cells in vitro; L-Gln 40 mM, D-Gln high dose
# PDAC cells [5] = format: cell-based
# Text: As L-Gln supplementation enhances the efficacy of chemotherapy, we tested whether L-Gln can lower the effective dose of gemcitabine.
# PDAC cells [6] = assay: PDAC cell growth / cell death in vitro; format: cell-based; settings: D-Gln high dose
# [7] = system: Pancreatic cancer cells (MIAPaCa human cell line); assay: Relative cell number / gemcitabine dose response with glutamine; format: cell-based; settings: for IC50: Homo sapiens, MIAPaCa cells
# pancreatic cancer cells [8] = assay: Basal metabolic rate and mitochondrial proton leakage of pancreatic cancer cells; format: cell-based, human
# [9] = at 23° C.; cited from earlier work
# pancreatic cancer cells [10] = assay: DNA damage accumulation; format: cell-based, human; settings: combination of glutamine and gemcitabine over either single agent
# [11] = enteral glutamine, 47 prospective trials, over 1600 adult patients; cited from earlier work
# melanoma tumor = settings: dietary supplementation; cited from earlier work
# [12] = combination 40 mM glutamine and 0.5 μM gemcitabine
compound,measurement,setting,value
O=C(Cc1cccc(OC(F)(F)F)c1)Nc1ccc(CCCCc2nnc(NC(=O)Cc3ccccn3)s2)nn1 [CB-839],efficacy in PDAC mouse models,PDAC mouse models,failed
same,antitumor efficacy,Mia PaCa-2 cells [1],some antitumor efficacy
"NC(=O)CC[C@H](N)C(=O)O [L-Gln, L-glutamine]",antitumor effects of gemcitabine,"PDAC cells [2]; L-Gln 40 mM compared to 2 mM, several PDAC cell lines",consistently enhanced the antitumor effects of gemcitabine
same,TCA cycle metabolite levels,pancreatic cancer cells [3]; 40 mM L-Gln,did not affect the majority of TCA cycle metabolites
same,intracellular essential and conditionally amino acids,"pancreatic cancer cells [3]; 40 mM compared to 2 mM L-Gln, PDAC cells in vitro",significantly depleted
same,intracellular nucleotide stores,pancreatic cancer cells [3]; 40 mM compared to control 2 mM L-Gln,significantly depleted
same,intracellular sodium,Mia PaCa-2 cells [4],increases intracellular sodium levels
same,antitumor efficacy over time,Mia PaCa-2 cells [1]; 40 mM L-Gln compared to control 2 mM L-Gln,consistently better with antitumor efficacy
same,antitumor activity under glutaminase inhibition,Mia PaCa-2 cells [1]; L-Gln together with CB-839,occurred independently of glutaminase inhibition with CB-839
same,antitumor efficacy,Mia PaCa-2 cells [1],greater antitumor activity
same,colony formation with 5-FU,PDAC cells [5],as effective or even more effective than 5-FU at 0.1 uM
same,colony formation with gemcitabine,PDAC cells [5]; 20 mM L-Gln plus gemcitabine,can enhance the efficacy gemcitabine
same,colony formation with paclitaxel,PDAC cells [5]; high-dose L-Gln plus paclitaxel,enhances the efficacy of paclitaxel
C[C@@H]1O[C@@H](O[C@H]2C[C@@H](O)[C@]3(CO)[C@H]4[C@H](O)C[C@]5(C)[C@@H](C6=CC(=O)OC6)CC[C@]5(O)[C@@H]4CC[C@]3(O)C2)[C@H](O)[C@H](O)[C@H]1O [Ouabain],intracellular sodium,Mia PaCa-2 cells [4],leads to build up of intracellular sodium
same,PDAC cell growth / cell death,PDAC cells [6],greater PDAC cell death
Nc1ccn([C@@H]2O[C@H](CO)[C@@H](O)C2(F)F)c(=O)n1 [gemcitabine],IC50,"[7]; MIA PaCa-2, in the presence of 2 mM glutamine (physiologic concentration)",666 nM
same,IC50,"[7]; MIA PaCa-2, with 40 mM glutamine (super-physiologic concentration)",179 nM
same,basal metabolic rate,pancreatic cancer cells [8]; gemcitabine alone,elevated
same,mitochondrial proton leakage,pancreatic cancer cells [8]; gemcitabine alone,induced
NC(=O)CC[C@H](N)C(=O)O [glutamine],PDAC cell death with increasing concentrations of gemcitabine,PDAC cells [2]; glutamine supplementation,enhancement of PDAC cell death
same,cancer cell viability with increasing concentrations of gemcitabine,PDAC cells [2]; glutamine supplementation in the face of glutaminase inhibition,decreased cancer cell viability
same,sensitivity to gemcitabine,"PDAC cells [2]; glutamine supplementation, even in the face of glutaminase inhibition",enhances sensitivity to gemcitabine
same,solubility,[9],3.6%
same,cell death,[7]; combination of elevated concentrations of glutamine and gemcitabine compared to either alone,dramatic increase in cell death
same,DNA damage,pancreatic cancer cells [10],greater DNA damage accumulation
same,free nucleotides,pancreatic cancer cells [3]; [12],accumulation of free nucleotides
same,vitamin C and SAM levels,pancreatic cancer cells [3]; [12],accumulation of vitamin C and S-adenosine methionine (SAM)
same,tolerability,[11],well-tolerated
same,mitochondrial proton leakage induced by gemcitabine,pancreatic cancer cells [8]; additional glutamine treatment,reduced
same,basal metabolic rate,pancreatic cancer cells [8]; combination of 40 mM glutamine and 0.5 μM gemcitabine,further elevated still
same,melanoma tumor growth,melanoma tumor,can inhibit melanoma tumor growth
